According to ChEMBL document CHEMBL3352351 (Bioorg Med Chem, 2014):

Key:
A549 = experiment: Cytotoxicity against human A549 cells after 72 hrs by MTT assay; conditions: A549, 72 h
[1] = target: Vascular endothelial growth factor receptor 2 (Homo sapiens, UniProt P35968); experiment: Inhibition of KDR (unknown origin) using poly (Glu, Tyr) 4:1 substrate incubated for 30 mins by HTRF assay
[2] = Cytotoxicity against human MKN45 cells after 72 hrs by MTT assay; conditions: MKN-45, 72 h
[3] = target: Hepatocyte growth factor receptor (Homo sapiens, UniProt P08581); experiment: Inhibition of c-Met (unknown origin) using poly (Glu, Tyr) 4:1 substrate incubated for 30 mins by HTRF assay
[4] = Cytotoxicity against human H460 cells after 72 hrs by MTT assay; conditions: NCI-H460, 72 h
[5] = target: Epidermal growth factor receptor (Homo sapiens, UniProt P00533); experiment: Inhibition of EGFR (unknown origin) using poly (Glu, Tyr) 4:1 substrate incubated for 30 mins by HTRF assay
[6] = target: T1, Receptor-type tyrosine-protein kinase FLT3 (Homo sapiens, UniProt P36888); experiment: Inhibition of FLT3 (unknown origin) using poly (Glu, Tyr) 4:1 substrate incubated for 30 mins by HTRF assay
T1 sequence (P36888 whole entry): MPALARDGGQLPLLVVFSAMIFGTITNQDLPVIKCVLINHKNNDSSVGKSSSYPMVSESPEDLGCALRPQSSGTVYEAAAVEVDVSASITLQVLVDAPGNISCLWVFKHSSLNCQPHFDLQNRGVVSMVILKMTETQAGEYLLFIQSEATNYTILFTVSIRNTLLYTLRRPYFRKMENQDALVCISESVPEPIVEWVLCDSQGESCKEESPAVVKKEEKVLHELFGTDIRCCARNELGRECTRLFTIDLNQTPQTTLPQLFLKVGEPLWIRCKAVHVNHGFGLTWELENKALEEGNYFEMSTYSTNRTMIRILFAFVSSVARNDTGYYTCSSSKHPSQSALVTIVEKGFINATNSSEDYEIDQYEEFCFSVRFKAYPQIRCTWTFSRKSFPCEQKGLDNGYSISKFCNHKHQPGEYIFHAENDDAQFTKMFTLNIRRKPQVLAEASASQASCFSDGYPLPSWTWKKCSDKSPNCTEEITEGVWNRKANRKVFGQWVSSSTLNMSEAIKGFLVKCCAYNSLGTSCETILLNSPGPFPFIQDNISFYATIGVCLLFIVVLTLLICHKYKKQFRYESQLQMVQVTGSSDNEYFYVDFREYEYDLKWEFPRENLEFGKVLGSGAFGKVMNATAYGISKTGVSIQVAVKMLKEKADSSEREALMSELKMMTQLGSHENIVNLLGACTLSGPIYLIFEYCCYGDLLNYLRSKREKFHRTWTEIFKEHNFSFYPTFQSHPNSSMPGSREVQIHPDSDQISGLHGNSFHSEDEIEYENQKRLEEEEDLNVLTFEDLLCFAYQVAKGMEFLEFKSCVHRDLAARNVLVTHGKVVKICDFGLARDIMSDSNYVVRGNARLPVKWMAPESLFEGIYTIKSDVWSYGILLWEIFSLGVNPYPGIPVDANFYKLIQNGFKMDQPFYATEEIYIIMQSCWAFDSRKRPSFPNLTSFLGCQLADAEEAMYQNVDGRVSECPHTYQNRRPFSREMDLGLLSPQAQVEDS

HT-29 = experiment: Cytotoxicity against human HT-29 cells after 72 hrs by MTT assay; conditions: HT-29, 72 h
[7] = Cytotoxicity against human U87MG cells after 72 hrs by MTT assay; format: functional, cell-based, U-87MG ATCC; conditions: U-87 MG
[8] = target: Platelet-derived growth factor receptor beta (Homo sapiens, UniProt P09619); experiment: Inhibition of PDGFRbeta (unknown origin) using poly (Glu, Tyr) 4:1 substrate incubated for 30 mins by HTRF assay
[9] = target: Mast/stem cell growth factor receptor Kit (Homo sapiens, UniProt P10721); experiment: Inhibition of c-Kit (unknown origin) using poly (Glu, Tyr) 4:1 substrate incubated for 30 mins by HTRF assay
Chain of Mast/stem cell growth factor receptor Kit (P10721 whole entry): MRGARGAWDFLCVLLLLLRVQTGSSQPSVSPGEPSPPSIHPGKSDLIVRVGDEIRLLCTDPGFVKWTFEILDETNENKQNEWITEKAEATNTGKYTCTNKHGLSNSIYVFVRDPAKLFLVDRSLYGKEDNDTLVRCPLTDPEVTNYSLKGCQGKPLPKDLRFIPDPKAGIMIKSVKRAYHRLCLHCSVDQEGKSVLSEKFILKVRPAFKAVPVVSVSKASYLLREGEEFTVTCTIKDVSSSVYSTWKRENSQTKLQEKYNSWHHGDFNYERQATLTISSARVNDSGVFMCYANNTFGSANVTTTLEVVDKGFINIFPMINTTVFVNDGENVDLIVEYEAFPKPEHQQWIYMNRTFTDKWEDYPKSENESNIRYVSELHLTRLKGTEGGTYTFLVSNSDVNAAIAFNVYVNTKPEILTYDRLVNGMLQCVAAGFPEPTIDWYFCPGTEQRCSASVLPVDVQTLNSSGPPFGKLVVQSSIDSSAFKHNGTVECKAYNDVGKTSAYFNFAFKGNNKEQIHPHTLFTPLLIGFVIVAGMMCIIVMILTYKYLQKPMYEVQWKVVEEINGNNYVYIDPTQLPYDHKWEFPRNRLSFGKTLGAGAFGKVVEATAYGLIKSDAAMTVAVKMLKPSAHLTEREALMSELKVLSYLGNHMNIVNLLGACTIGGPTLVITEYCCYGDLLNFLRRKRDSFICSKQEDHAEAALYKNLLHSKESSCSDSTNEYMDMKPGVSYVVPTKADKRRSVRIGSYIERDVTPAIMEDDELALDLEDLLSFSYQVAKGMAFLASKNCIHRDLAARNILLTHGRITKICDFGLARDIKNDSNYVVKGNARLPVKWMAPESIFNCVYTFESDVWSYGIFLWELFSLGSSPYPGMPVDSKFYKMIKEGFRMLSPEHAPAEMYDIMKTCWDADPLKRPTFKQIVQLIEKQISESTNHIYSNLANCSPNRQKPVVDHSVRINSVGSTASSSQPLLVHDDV

Chain of Vascular endothelial growth factor receptor 2 (P35968 whole entry): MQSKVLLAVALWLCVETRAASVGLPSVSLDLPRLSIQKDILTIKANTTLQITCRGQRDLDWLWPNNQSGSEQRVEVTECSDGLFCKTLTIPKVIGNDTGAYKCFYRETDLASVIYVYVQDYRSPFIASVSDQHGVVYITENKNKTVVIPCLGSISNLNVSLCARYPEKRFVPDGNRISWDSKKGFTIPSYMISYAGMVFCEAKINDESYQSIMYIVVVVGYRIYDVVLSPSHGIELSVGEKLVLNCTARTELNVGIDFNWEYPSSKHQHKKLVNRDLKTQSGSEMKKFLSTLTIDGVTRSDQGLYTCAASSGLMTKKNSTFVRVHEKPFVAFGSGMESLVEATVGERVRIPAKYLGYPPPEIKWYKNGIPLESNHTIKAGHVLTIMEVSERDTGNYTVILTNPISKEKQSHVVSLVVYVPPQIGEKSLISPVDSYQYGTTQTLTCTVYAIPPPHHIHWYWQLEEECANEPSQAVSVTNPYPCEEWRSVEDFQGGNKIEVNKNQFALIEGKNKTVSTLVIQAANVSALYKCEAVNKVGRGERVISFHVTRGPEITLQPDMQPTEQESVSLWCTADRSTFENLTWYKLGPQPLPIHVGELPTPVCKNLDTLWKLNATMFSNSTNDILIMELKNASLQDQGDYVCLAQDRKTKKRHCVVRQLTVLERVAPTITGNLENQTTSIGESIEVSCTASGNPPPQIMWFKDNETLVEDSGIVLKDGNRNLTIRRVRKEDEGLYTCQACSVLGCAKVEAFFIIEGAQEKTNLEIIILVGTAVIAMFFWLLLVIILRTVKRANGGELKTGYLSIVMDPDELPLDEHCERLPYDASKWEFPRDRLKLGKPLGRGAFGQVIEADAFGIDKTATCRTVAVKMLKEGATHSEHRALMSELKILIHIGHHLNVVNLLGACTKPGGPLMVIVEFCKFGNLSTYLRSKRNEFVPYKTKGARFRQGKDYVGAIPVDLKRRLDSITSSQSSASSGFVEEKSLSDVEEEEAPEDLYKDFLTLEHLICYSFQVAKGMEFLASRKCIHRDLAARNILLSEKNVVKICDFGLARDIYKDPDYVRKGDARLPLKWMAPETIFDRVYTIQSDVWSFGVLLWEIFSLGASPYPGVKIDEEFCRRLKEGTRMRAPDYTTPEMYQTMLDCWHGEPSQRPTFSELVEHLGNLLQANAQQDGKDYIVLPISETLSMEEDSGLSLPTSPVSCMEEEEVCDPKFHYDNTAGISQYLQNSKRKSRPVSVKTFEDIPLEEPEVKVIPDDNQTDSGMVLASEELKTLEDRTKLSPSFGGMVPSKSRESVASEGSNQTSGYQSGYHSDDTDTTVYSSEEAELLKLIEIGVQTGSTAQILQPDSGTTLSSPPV
Chain of Hepatocyte growth factor receptor (P08581 whole entry): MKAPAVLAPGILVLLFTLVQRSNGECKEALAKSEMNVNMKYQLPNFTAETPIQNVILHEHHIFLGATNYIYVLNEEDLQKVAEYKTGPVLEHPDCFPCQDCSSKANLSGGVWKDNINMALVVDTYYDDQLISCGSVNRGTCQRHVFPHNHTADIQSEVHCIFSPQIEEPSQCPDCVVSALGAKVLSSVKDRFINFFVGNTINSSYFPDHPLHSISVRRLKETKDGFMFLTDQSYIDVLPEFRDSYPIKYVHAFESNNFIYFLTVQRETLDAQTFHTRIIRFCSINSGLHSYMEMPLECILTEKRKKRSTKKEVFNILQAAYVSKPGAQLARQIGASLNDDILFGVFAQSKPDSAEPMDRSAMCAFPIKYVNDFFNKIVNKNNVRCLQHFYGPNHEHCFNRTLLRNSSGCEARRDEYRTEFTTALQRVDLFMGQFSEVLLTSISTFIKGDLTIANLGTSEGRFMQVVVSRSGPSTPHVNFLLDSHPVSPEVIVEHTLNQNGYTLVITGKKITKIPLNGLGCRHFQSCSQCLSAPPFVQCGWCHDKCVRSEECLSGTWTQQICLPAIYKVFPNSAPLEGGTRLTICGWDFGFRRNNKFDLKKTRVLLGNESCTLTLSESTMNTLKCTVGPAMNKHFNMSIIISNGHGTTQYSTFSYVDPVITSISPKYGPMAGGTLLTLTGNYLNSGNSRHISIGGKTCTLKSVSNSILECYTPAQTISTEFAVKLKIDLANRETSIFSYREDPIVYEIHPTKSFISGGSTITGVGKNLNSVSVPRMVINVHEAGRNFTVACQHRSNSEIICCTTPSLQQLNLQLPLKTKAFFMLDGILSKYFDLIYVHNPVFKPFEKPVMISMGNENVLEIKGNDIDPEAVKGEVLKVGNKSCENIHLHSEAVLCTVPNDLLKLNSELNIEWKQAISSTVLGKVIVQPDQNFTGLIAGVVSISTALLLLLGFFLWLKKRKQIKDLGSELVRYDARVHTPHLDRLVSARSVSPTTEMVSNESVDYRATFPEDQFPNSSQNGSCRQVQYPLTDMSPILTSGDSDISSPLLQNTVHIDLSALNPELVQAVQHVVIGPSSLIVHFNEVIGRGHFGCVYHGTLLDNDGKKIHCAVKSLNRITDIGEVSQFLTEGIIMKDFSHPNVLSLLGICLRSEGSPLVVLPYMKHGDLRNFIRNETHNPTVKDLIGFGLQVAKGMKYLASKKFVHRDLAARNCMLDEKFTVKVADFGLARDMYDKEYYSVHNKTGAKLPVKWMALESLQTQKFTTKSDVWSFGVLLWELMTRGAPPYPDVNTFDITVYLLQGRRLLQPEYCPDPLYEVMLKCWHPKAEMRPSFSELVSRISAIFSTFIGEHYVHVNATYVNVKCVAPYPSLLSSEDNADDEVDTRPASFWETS
Chain of Platelet-derived growth factor receptor beta (P09619 whole entry): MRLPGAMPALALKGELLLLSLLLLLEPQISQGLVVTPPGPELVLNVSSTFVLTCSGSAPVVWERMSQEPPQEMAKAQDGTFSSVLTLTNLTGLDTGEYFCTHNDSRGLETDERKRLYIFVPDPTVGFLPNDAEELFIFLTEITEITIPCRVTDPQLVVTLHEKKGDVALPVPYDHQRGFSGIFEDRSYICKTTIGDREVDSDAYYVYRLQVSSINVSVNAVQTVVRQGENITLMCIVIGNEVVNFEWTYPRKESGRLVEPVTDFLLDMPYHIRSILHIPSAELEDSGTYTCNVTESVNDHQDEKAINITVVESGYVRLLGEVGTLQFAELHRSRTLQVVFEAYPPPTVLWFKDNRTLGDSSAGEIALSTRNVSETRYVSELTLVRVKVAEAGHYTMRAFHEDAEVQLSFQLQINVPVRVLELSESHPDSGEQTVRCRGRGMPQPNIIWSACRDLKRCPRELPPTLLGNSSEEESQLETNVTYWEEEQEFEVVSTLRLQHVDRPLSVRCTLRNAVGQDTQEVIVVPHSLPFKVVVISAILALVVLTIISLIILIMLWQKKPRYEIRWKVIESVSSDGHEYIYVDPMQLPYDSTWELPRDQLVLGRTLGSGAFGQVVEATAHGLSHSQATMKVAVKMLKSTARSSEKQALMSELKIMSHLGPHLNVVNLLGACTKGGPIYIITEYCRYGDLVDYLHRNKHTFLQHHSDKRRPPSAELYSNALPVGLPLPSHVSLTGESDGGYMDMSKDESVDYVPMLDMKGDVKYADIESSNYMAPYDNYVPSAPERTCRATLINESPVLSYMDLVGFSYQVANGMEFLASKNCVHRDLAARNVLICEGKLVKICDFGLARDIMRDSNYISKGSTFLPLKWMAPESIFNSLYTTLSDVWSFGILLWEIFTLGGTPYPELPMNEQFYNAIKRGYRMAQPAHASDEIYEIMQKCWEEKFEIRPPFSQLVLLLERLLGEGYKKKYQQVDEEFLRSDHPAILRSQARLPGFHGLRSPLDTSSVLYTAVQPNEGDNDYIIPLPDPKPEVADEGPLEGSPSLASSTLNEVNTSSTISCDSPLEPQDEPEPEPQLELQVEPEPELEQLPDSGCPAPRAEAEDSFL

IC50 [1]: 65.4 nM | IC50 [3]: 1.04 nM | IC50 [5]: > 10000 nM | IC50 [6]: 8.78 nM | IC50 [8]: 16.3 nM | IC50 [9]: 4.02 nM
SMILES: COc1cc2c(Oc3ccc(NC(=O)c4nnn(-c5ccc(F)cc5)c4C(F)(F)F)cc3F)ccnc2cc1OCCCN1CCCC1
IC50 (A549): 80 nM | IC50 [2]: 21 nM | IC50 [4]: 150 nM | IC50 (HT-29): 120 nM | IC50 [7]: 850 nM
